Assays:
[1] = system: HIV-1 virus of the patient (protease and inverse transcriptase genes); experiment: ViroSeq genotyping, evidence of resistance from the amplicon of patient plasma; conditions: M184V, T215Y, L63P
Text: (§1) The procedure to generate the first specific amplicon is as follows: • 1) Viral RNA contained in a biological sample is extracted. The biological sample may be derived from a sample from the patient. It may be a blood or serum sample, but may also come from a biological fluid or a biopsy or any other tissue preparation. The biological sample may also come from a viral culture. In a general manner, a biological sample corresponds to all types of samples containing one or several HIV-1 variants. The term “HIV-1 virus” in this Example is used to mean any viral strain belonging to the sub-types B and non-B. • 2) The RNA obtained in (1) is retrotranscribed and amplified with one of the pairs of specific primers in Table 1 below to obtain an amplicon characterized by: […]
(§2) Tables 2 and 3 below show two examples of samples of plasma in patients 1 and 2, respectively, for which the amplicons generated by the method above have made it possible to implement the genotyping according to the Trugene and Viroseq techniques and phenotyping according to the Phenoscript technique.
The RNA is extracted using plasmas from patients according to a known extraction technique based on the affinity of RNA with respect to silica columns, the viral RNA is retrotranscribed and amplified using PCR with primers specific to the pol gene making possible amplification of a sequence of nucleic acids of 1800 pb comprising, for the protease, codons 1 to 99 and comprising, for the inverse transcriptase, codons 1 to 335. The DNA thus obtained is then sequenced with seven different primers according to the Big Dye™ Terminator technology, a sequencing technique using dye terminators. The sequence reaction is initiated by each specific non-labeled primer, then interrupted by each of the labeled nucleotides. All of the fragments synthesized are then separated on electrophoresis gel. The color of the fluorochrome will then be registered using an automatic sequencer (ABI Prism 377 DNA sequencer), specifically indicating the fragments ending with each of the four labeled nucleotides. The sequences, once reconstituted, are compared to the sequence of a reference virus using an alignment software.
(§3) The measurement of genetic variability is carried out using a specific sequence of nucleic acids amplified according to aspects of the method, then analyzed according to known sequencing techniques (Trugene, ViroSeq). Mutations in the genes of the protease and of the inverse transcriptase identified by these tests are interpreted according to algorithms that are updated regularly. A first score of 0 to 2 is attributed to each of the three levels of resistance determined by the interpretation. Table 11 below summarizes the interpretations given by the Trugene and ViroSeq tests as a function of the mutations identified and of the anti-retroviruses (ARV) used and assigns a genotypical score corresponding to the magnitude of the resistance.

[2] = system: HIV-1 virus of the patient (protease and inverse transcriptase genes); experiment: Trugene genotyping, interpretation of resistances from the amplicon of patient plasma; conditions: M184V, T215Y, L63P
Text: as §1, §2
The Trugene HIV-1 genotyping kit is used to determine the genotype of the virus of sub-types B and non-B. The RNA is extracted using plasma from patients, according to known techniques, the viral RNA is retrotranscribed and amplified using PCR with primers specific for the pol gene making possible amplification of a sequence of nucleic acids of 1300 pb comprising, for the protease, codons 1 to 99 and comprising, for the inverse transcriptase, codons 1 to 247. The product of RT-PCR thus obtained is used in each of the 16 sequencing reactions by using the principle of CLIP™ reaction, sequencing technique using labeled primers (dye primers). Four pairs of different primers are used for this sequencing method, two pairs for the sequencing of the protease and two other pairs for the sequencing of the inverse transcriptase. Each sequence reaction is initiated by a specific dye primer (CLIP™), then interrupted by the corresponding labeled nucleotide. All of the fragments synthesized are then separated on electrophoresis gel and analyzed by an automatic sequencer specifically indicating the fragments ending with each of the four labeled nucleotides. The sequences, once reconstituted, are compared to the sequence of a reference virus using an alignment software.
as §3

[3] = system: HIV-1 virus of the patient (recombinant virus); experiment: Phenoscript phenotyping, recombinant virus of the patient in the presence of drugs; type: cell-based
Text: The principle of the phenotypical tests for resistance is based on the measurement in vitro of the growth of a virus in the patient in the presence of drugs.
Viral RNA derived from the plasma is extracted, then the regions coding for inverse transcriptase and/or protease are amplified using PCR in phenotypical tests. Amplicons are recombined in vitro in a defective vector to form a viral particle. This viral particle is placed in a culture in the presence of increasing concentrations of drugs. The results are expressed in a “fold change” ratio of IC 50 (or IC90) with respect to a control virus which corresponds to the concentration of the drug that inhibits 50% (or 90%) of the viral replication in comparison to the reference wild type virus. The resistance level is defined as a function of thresholds of sensitivity (cut off).
as §2
The principle of the tests of phenotypical resistance is based on the measurement in vitro of the growth of a virus in the patient in the presence of drug(s)/active agent(s), compared to a reference virus (resistance index). The level of resistance is defined as a function of thresholds of sensitivity (cut off). A second score of 0 to 2 is attributed to each of the three levels of resistance determined by the interpretation. Table 12 summarizes the interpretations given by the main phenotypical tests, PhenoSense and Phenoscript, as a function of their thresholds of sensitivity and assigns a phenotypical score corresponding to the magnitude of resistance.

[4] = Patient 1 plasma sample, mutations D67N, K70R, K219E, K103N, V108I, P225H
[5] = Patient 2 plasma sample, mutations M41L, L210W, M36L

## Nc1ccn([C@@H]2CS[C@H](CO)O2)c(=O)n1 [3TC]
[1]; [4]
  Viroseq Evidence of resistance: High
[1]; [5]
  Viroseq Evidence of resistance: High
[2]; [4]
  Trugene Interpretation of resistances: Resistance
[2]; [5]
  Trugene Interpretation of resistances: Resistance
[3]; Patient 1 plasma sample
  Phenoscript Contribution to the therapeutic response: Improbable
[3]; Patient 2 plasma sample
  Phenoscript Contribution to the therapeutic response: Improbable

## Nc1nc(NC2CC2)c2ncn([C@H]3C=C[C@@H](CO)C3)c2n1 [ABC]
[1]; [4]
  Viroseq Evidence of resistance: Possible
[1]; [5]
  Viroseq Evidence of resistance: Possible
[2]; [4]
  Trugene Interpretation of resistances: No resistance
[2]; [5]
  Trugene Interpretation of resistances: Resistance
[3]; Patient 1 plasma sample
  Phenoscript Contribution to the therapeutic response: Possible
[3]; Patient 2 plasma sample
  Phenoscript Contribution to the therapeutic response: Possible

## CC(C)CN(C[C@@H](O)[C@H](Cc1ccccc1)NC(=O)O[C@H]1CCOC1)S(=O)(=O)c1ccc(N)cc1 [APV]
[1]; [4]
  Viroseq Evidence of resistance: Zero
[1]; [5]
  Viroseq Evidence of resistance: Zero
[2]; [4]
  Trugene Interpretation of resistances: No resistance
[2]; [5]
  Trugene Interpretation of resistances: No resistance
[3]; Patient 1 plasma sample
  Phenoscript Contribution to the therapeutic response: Probable
[3]; Patient 2 plasma sample
  Phenoscript Contribution to the therapeutic response: Probable

## Cc1cn([C@H]2C[C@H](N=[N+]=[N-])[C@@H](CO)O2)c(=O)[nH]c1=O [AZT]
[1]; [4]
  Viroseq Evidence of resistance: High
[1]; [5]
  Viroseq Evidence of resistance: High
[2]; [4]
  Trugene Interpretation of resistances: Resistance
[2]; [5]
  Trugene Interpretation of resistances: Resistance
[3]; Patient 1 plasma sample
  Phenoscript Contribution to the therapeutic response: Improbable
[3]; Patient 2 plasma sample
  Phenoscript Contribution to the therapeutic response: Improbable

## CC(C)Nc1cccnc1N1CCN(C(=O)c2cc3cc(NS(C)(=O)=O)ccc3[nH]2)CC1 [DLV]
[1]; [4]
  Viroseq Evidence of resistance: High
[1]; [5]
  Viroseq Evidence of resistance: Zero
[2]; [4]
  Trugene Interpretation of resistances: Resistance
[2]; [5]
  Trugene Interpretation of resistances: No resistance

## O=C1Nc2ccc(Cl)cc2[C@@](C#CC2CC2)(C(F)(F)F)O1 [EFV]
[1]; [4]
  Viroseq Evidence of resistance: High
[1]; [5]
  Viroseq Evidence of resistance: Zero
[2]; [4]
  Trugene Interpretation of resistances: Resistance
[2]; [5]
  Trugene Interpretation of resistances: No resistance
[3]; Patient 1 plasma sample
  Phenoscript Contribution to the therapeutic response: Improbable
[3]; Patient 2 plasma sample
  Phenoscript Contribution to the therapeutic response: Probable

## CC(C)(C)NC(=O)[C@@H]1CN(Cc2cccnc2)CCN1C[C@@H](O)C[C@@H](Cc1ccccc1)C(=O)N[C@H]1c2ccccc2C[C@H]1O [IDV]
[1]; [4]
  Viroseq Evidence of resistance: Zero
[1]; [5]
  Viroseq Evidence of resistance: Zero
[2]; [4]
  Trugene Interpretation of resistances: No resistance
[2]; [5]
  Trugene Interpretation of resistances: No resistance
[3]; Patient 1 plasma sample
  Phenoscript Contribution to the therapeutic response: Probable
[3]; Patient 2 plasma sample
  Phenoscript Contribution to the therapeutic response: Probable

## Cc1cccc(C)c1OCC(=O)N[C@@H](Cc1ccccc1)[C@@H](O)C[C@H](Cc1ccccc1)NC(=O)[C@H](C(C)C)N1CCCNC1=O [LPV]
[1]; [4]
  Viroseq Evidence of resistance: Zero
[1]; [5]
  Viroseq Evidence of resistance: Zero
[2]; [4]
  Trugene Interpretation of resistances: No resistance
[2]; [5]
  Trugene Interpretation of resistances: No resistance
[3]; Patient 1 plasma sample
  Phenoscript Contribution to the therapeutic response: Probable
[3]; Patient 2 plasma sample
  Phenoscript Contribution to the therapeutic response: Probable

## Cc1c(O)cccc1C(=O)N[C@@H](CSc1ccccc1)[C@H](O)CN1C[C@H]2CCCC[C@H]2C[C@H]1C(=O)NC(C)(C)C [NFV]
[1]; [4]
  Viroseq Evidence of resistance: Zero
[1]; [5]
  Viroseq Evidence of resistance: Possible
[2]; [4]
  Trugene Interpretation of resistances: No resistance
[2]; [5]
  Trugene Interpretation of resistances: No resistance
[3]; Patient 1 plasma sample
  Phenoscript Contribution to the therapeutic response: Probable
[3]; Patient 2 plasma sample
  Phenoscript Contribution to the therapeutic response: Probable

## Cc1ccnc2c1NC(=O)c1cccnc1N2C1CC1 [NVP]
[1]; [4]
  Viroseq Evidence of resistance: High
[1]; [5]
  Viroseq Evidence of resistance: Zero
[2]; [4]
  Trugene Interpretation of resistances: Resistance
[2]; [5]
  Trugene Interpretation of resistances: No resistance
[3]; Patient 1 plasma sample
  Phenoscript Contribution to the therapeutic response: Improbable
[3]; Patient 2 plasma sample
  Phenoscript Contribution to the therapeutic response: Probable

## CC(C)c1nc(CN(C)C(=O)N[C@H](C(=O)N[C@@H](Cc2ccccc2)C[C@H](O)[C@H](Cc2ccccc2)NC(=O)OCc2cncs2)C(C)C)cs1 [RTV]
[1]; [4]
  Viroseq Evidence of resistance: Zero
[1]; [5]
  Viroseq Evidence of resistance: Zero
[2]; [4]
  Trugene Interpretation of resistances: No resistance
[2]; [5]
  Trugene Interpretation of resistances: No resistance

## CC(C)(C)NC(=O)[C@@H]1C[C@@H]2CCCC[C@@H]2CN1C[C@@H](O)[C@H](Cc1ccccc1)NC(=O)[C@H](CC(N)=O)NC(=O)c1ccc2ccccc2n1 [SQV]
[1]; [4]
  Viroseq Evidence of resistance: Zero
[1]; [5]
  Viroseq Evidence of resistance: Zero
[2]; [4]
  Trugene Interpretation of resistances: No resistance
[2]; [5]
  Trugene Interpretation of resistances: No resistance
[3]; Patient 1 plasma sample
  Phenoscript Contribution to the therapeutic response: Probable
[3]; Patient 2 plasma sample
  Phenoscript Contribution to the therapeutic response: Probable

## CC(C)OC(=O)OCOP(=O)(CO[C@H](C)Cn1cnc2c(N)ncnc21)OCOC(=O)OC(C)C.O=C(O)/C=C/C(=O)O [TDF]
[2]; [4]
  Trugene Interpretation of resistances: No resistance
[2]; [5]
  Trugene Interpretation of resistances: Resistance

## Cc1cn([C@H]2C=C[C@@H](CO)O2)c(=O)[nH]c1=O [d4T]
[1]; [4]
  Viroseq Evidence of resistance: High
[1]; [5]
  Viroseq Evidence of resistance: Possible
[2]; [4]
  Trugene Interpretation of resistances: Resistance
[2]; [5]
  Trugene Interpretation of resistances: Resistance
[3]; Patient 1 plasma sample
  Phenoscript Contribution to the therapeutic response: Probable
[3]; Patient 2 plasma sample
  Phenoscript Contribution to the therapeutic response: Probable

## Nc1ccn([C@H]2CC[C@@H](CO)O2)c(=O)n1 [ddC]
[1]; [4]
  Viroseq Evidence of resistance: High
[1]; [5]
  Viroseq Evidence of resistance: High
